Reference: paper PMC7592913, “PE homeostasis rebalanced through mitochondria-ER lipid exchange prevents retinal degeneration in Drosophila” (PLoS Genetics, 2020)

Target: T1, PECT (Drosophila melanogaster, UniProt Q9VK25)
T1 construct: pect cDNA in pMAL, N-terminal MBP fusion (tag kept), E. coli BL21 (DE3), amylose column
Test: LC-MS (SRM) detection of CDP-ethanolamine product
Format: biochemical
Conditions: 1 mM phosphoethanolamine, 2 mM CTP, 10 mM MgCl2, 1 mM DTT, 1 uM MBP-PECT, pH 7.7, 37 °C, 15 min

T1 sequence (Q9VK25 1-393): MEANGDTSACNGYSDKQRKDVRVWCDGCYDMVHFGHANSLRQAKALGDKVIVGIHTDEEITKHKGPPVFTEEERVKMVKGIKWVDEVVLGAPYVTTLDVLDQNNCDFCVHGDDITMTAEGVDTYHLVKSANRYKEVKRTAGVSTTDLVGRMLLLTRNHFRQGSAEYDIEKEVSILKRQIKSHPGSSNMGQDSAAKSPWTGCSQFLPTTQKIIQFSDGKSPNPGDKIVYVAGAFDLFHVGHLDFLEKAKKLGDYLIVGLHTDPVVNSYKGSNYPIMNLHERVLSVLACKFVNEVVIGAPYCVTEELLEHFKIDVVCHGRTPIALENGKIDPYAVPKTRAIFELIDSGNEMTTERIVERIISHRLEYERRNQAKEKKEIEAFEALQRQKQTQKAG

Row | SMILES | LC-MS (SRM) detection of CDP-ethanolamine product
1 | Nc1ccn([C@@H]2O[C@H](COP(=O)(O)OP(=O)(O)OP(=O)(O)O)[C@@H](O)[C@H]2O)c(=O)n1 [CTP] | CDP-ethanolamine was detected by the mass spectrum after incubating phosphoethanolamine and CTP with PECT
2 | NCCOP(=O)(O)O [phosphoethanolamine] | CDP-ethanolamine was detected by the mass spectrum after incubating phosphoethanolamine and CTP with PECT
